How the values were obtained:
[1] = Bidirectional transport experiments on Caco-2 cell monolayer model; assay type: in vitro ADME, human; conditions: human, donor 10 μM, 3 h
[2] = system: Caco-2 cell monolayer; assay: as above; assay type: in vitro ADME, human; conditions: for Intestinal absorption / transport mechanism speculated from ER: comparison of Papp in two directions; for Papp(AP-BL): AP to BL; for Papp(AP-BL) / Recovery (%) BL-AP / Papp(BL-AP) / ER (efflux ratio, Papp(BL-AP)/Papp(AP-BL)): donor 10 μM, 3 h; for Papp(AP-BL) / Recovery (%) BL-AP / Papp(BL-AP): 37 °C; for Papp(AP-BL) / Papp(BL-AP): single time point, mean ± S.D. (n=3); for Recovery (%) BL-AP / Papp(BL-AP): BL to AP
[3] = Stability of QC samples in transport medium; assay type: physicochemical; conditions: HBSS, n=3
[4] = high QC conc. (SSs 100, SGF 1000, SGD 800, SGG 2200 nM)
[5] = low QC conc. (SSs 1, SGF 10, SGD 8, SGG 22 nM)
[6] = middle QC conc. (SSs 10, SGF 100, SGD 80, SGG 220 nM)

Structure (SMILES)	Intestinal absorption / transport mechanism speculated from ER [2]	Stability, Autosampler (4 °C for 8 h), RE (%) [3, 4]	Stability, Bench-top (room temperature for 6 h), RE (%) [3, 4]	Stability, Freeze-thaw (three cycles at −80 °C), RE (%) [3, 4]	Stability, Processed samples (−80 °C for 8 h), RE (%) [3, 4]	Stability, Autosampler (4 °C for 8 h), RE (%) [3, 5]	Stability, Bench-top (room temperature for 6 h), RE (%) [3, 5]	Stability, Freeze-thaw (three cycles at −80 °C), RE (%) [3, 5]	Stability, Processed samples (−80 °C for 8 h), RE (%) [3, 5]	Stability, Autosampler (4 °C for 8 h), RE (%) [3, 6]	Stability, Bench-top (room temperature for 6 h), RE (%) [3, 6]	Stability, Freeze-thaw (three cycles at −80 °C), RE (%) [3, 6]	Stability, Processed samples (−80 °C for 8 h), RE (%) [3, 6]	Papp(AP-BL) [2]	Recovery (%) BL-AP [2]	Papp(BL-AP) [2]	ER (efflux ratio, Papp(BL-AP)/Papp(AP-BL)) [2]	also measured
C[C@H]1O[C@@H](O[C@H]2CC[C@@]3(C)[C@@H](CC[C@]4(C)[C@@H]3C=C[C@]35OC[C@@]6(CCC(C)(C)C[C@H]63)[C@@H](O)C[C@]54C)[C@]2(C)CO)[C@H](O)[C@@H](O[C@@H]2O[C@H](CO)[C@@H](O)[C@H](O)[C@H]2O)[C@H]1O [SSa]	passive transport	−1.88%	0.62%	1.36%	−1.50%	−3.60%	−1.06%	−7.46%	−10.40%	0.91%	2.00%	8.65%	2.87%	–	–	–	–	efflux ratio at 3 h, 10 μM ([1]; Caco-2, ER (efflux ratio, Papp(BL-AP)/Papp(AP-BL))): 1.15; Papp A→B at 3 h, 10 μM ([1]; Caco-2, Papp(AP-BL), AP to BL, 37 °C, single time point, mean ± S.D. (n=3)): 0.088 ± 0.014 ×10⁻⁶ cm/s; Papp B→A at 3 h, 10 μM ([1]; Caco-2, Papp(BL-AP), BL to AP, 37 °C, single time point, mean ± S.D. (n=3)): 0.102 ± 0.031 ×10⁻⁶ cm/s; recovery at 3 h, 10 μM ([1]; Caco-2, Recovery (%) BL-AP, BL to AP, 37 °C): 77.6%
C[C@H]1O[C@@H](O[C@H]2CC[C@@]3(C)[C@@H](CC[C@]4(C)[C@@H]3C=CC3=C5CC(C)(C)CC[C@]5(CO)[C@H](O)C[C@]34C)[C@]2(C)CO)[C@H](O)[C@@H](O[C@@H]2O[C@H](CO)[C@@H](O)[C@H](O)[C@H]2O)[C@H]1O [SSb2]	passive transport	5.11%	−0.27%	8.34%	4.04%	0.92%	0.01%	2.62%	3.52%	0.35%	5.34%	3.06%	6.93%	0.051 ± 0.010 × 10^−6 cm/s	68.12%	0.055 ± 0.011 × 10^−6 cm/s	1.09	–
C[C@H]1O[C@@H](O[C@H]2CC[C@@]3(C)[C@@H](CC[C@]4(C)[C@@H]3C=C[C@]35OC[C@@]6(CCC(C)(C)C[C@H]63)[C@H](O)C[C@]54C)[C@]2(C)CO)[C@H](O)[C@@H](O[C@@H]2O[C@H](CO)[C@@H](O)[C@H](O)[C@H]2O)[C@H]1O [SSd]	certain uptake transporters were probably involved	−0.92%	−8.09%	12.04%	−5.31%	−5.69%	0.83%	−1.11%	1.51%	−0.46%	8.37%	5.76%	−0.37%	0.312 ± 0.020 × 10^−6 cm/s	68.96%	0.079 ± 0.012 × 10^−6 cm/s	0.25	–

Reference: publication PMC8424369 (Journal of Pharmaceutical Analysis, 2020)
